One series relates to mouse plasma enzymes. Description: Stability of AMC-peptides in mouse plasma (HPLC, 350 nm). The conditions noted are these: up to 6 hrs. Format: in vitro ADME. As to the method: Peptide linker stock solutions (10 mM in DMSO) are diluted to 1 mM and then incubated with mouse plasma; aliquots are removed, blood proteins are precipitated with cold acetonitrile, pelleted with centrifugation, and the supernatant analyzed by HPLC.
(§1) A series of peptide-based small molecules were screened in vitro to characterize their lability in human cathepsin B and mouse plasma enzymes. The screening protocol was adapted from literatures^1,2 and is shown below in FIGS. 31 and 32. In short, a small library of peptides conjugated to 7-amino-4-methylcoumarin (AMC-peptides) were synthesized by standard solid-phase peptide synthesis (SPPS) by Genscript (Piscataway, NJ), as summarized in the Table 18. They were first dissolved in DMSO as 10 mM stock solution and then incubated in the presence of PBS buffer (Gibco, 10010-031), cathepsin B (Sino Biological, protein human recombinant), and mouse plasma (BioIVT, C57BL/6 li-hep pooled, female). Substrates of either cathepsin B or plasma enzymes (and not PBS) afforded cleavage of the peptide-AMC bond. The resultant free AMC elutes at a different time from the parent AMC-conjugated peptides on the HPLC, thereby the linker degradation was monitored and quantified over time (i.e., 5 min, 1 hr and 6 hrs). PBS buffer solution was used as the matrix for the negative control. Cleavage of cathepsin B substrate Ill (Millipore Sigma, 219392) served as the positive control.
(§2) The stability of the analyte peptide was determined by the comparing the area-under-curve (AUC) of analyte peaks at 350 nm following formula: […]

For another series, the target named is T1, human cathepsin B (Homo sapiens, UniProt P07858).
T1 construct: purchased Sino Biological
The series is described as follows: Cleavage of AMC-peptides by cathepsin B (HPLC, 350 nm). Format: biochemical. The conditions noted are these: pH 5, 37° C., up to 6 hrs. As to the method: as §1, §2

The next series relates to MC38 tumors. The series is described as follows: MC38 tumor model, single intratumoral injection of 7 nmol STINGa (diABZI). The format is in vivo, C57BL/6 mice. The conditions noted are these: 7 nmol STINGa IT day 11, versus vehicle / untreated. As to the method: (§3) Tumor size was measured by digital calipers for up to 30 days after tumor implantation (FIG. 12 B & C). To assess acute toxicity, mice were bled 4 hours after treatment, and blood IP-10 concentration was assessed by ELISA (FIG. 12D).
(§4) To further assess the impact of linkage on efficacy and tolerability in vivo, select compositions of the Compound listed in Table 9 were evaluated in tumor-bearing mice (FIG. 12). The study design is shown in (FIG. 12A). […] Tumors were allowed to grow until all mice in the study had palpable tumors. On day 11, mice were treated with a single intratumoral (IT) injection of 7 nmol of STINGa (diABZI) as either Compound 56, Compound 94, Compound 95, Compound 96 or Compound 97 in PBS. As a control, a group of mice was treated with the formulation vehicle (7% DMSO in PBS). Tumors were measured biweekly to track tumor growth after treatment. Tolerability was assessed by measuring the amount of Interferon-gamma-induced protein 10 (IP-10) in the serum of animals 4 hours after intratumoral injection.

The nature of series [1]: Particle / hydrodynamic size (Rh, Dh) by dynamic light scattering. Format: physicochemical.
Protocol: Samples were suspended at 0.5 mg/mL in PBS pH 7.4 and particle size was determined using dynamic light scattering (Malvern ZetaSizer Ultra).
In another series the test system is CT26 tumors. The series is described as follows: CT26 tumor model, single intratumoral injection of 35 nmol STINGa. Format: in vivo, BALB/c mice. The conditions noted are these: 35 nmol STINGa IT, versus vehicle or free STINGa. As for the experimental part:
Tumor size was measured by digital calipers (FIG. 11B) and survival (FIG. 11C) were assessed up to 80 days after tumor implantation.
To assess the impact of linkage on efficacy in vivo, select compositions were tested in tumor-bearing mice (FIG. 11). The study design is shown in (FIG. 11A). BALB/c mice were implanted subcutaneously with 10^5 cells of the syngeneic tumor line CT26 on day 0. Tumors were allowed to grow until all mice in the study had palpable tumors. On day 12, mice were treated with a single intratumoral (IT) injection of 35 nmol of the STINGa as either (i) Compound 56 (amide linkage); (ii) Compound 94 hydrazone (Hz) linkage; or (iii) the free STINGa. An additional group of mice was treated with the formulation vehicle (7% DMSO in PBS) as a negative control. Tumors were measured biweekly to track tumor growth after treatment.

In series [2] the test system is Interferon-gamma-induced protein 10 (IP-10). The series is described as follows: Serum IP-10 (ELISA) 4 hours after intratumoral injection (tolerability). The conditions noted are these: 4 hours after 7 nmol IT. Format: in vivo, C57BL/6 mice. As for the experimental part: as §3, §4
Series [3] can be described thus: Turbidity (OD 490 nm) / solubility in PBS buffer at different pH. The format is physicochemical.

20 compounds from patent US20230390406A1, “Star Polymer Drug Conjugates” (Vaccitech North America, Inc., priority 2020, published 2023) can be followed below.

Where a SMILES comes first, the peptide text is derived from it.

For the compound `CCC(NC(=O)[C@@H](NC(=O)[C@@H]1CCCN1C(=O)[C@H](CO)NC(=O)CCNC(C)=O)C(C)C)C(=O)Nc1ccc2c(C)cc(=O)oc2c1` (some centres unmarked) [AI, Ac-A′SPVB-AMC] (HELM PEPTIDE1{[ac].[bAla].S.P.V.[CCC(N[*:1])C(=O)[*:2]].[Cc1cc(=O)oc2cc(N[*:1])ccc12]}$$$$V2.0), the “stability in mouse plasma” value with mouse plasma enzymes was “metabolized quickly”. The “stability / cleavage in the presence of cathepsin B” value (shortened to “stability / cleavage”) on human cathepsin B is “metabolized quickly”.
On to `CCC(NC(=O)[C@H](CO)NC(=O)[C@H](CCCCN)NC(=O)[C@H](CO)NC(=O)CCNC(C)=O)C(=O)Nc1ccc2c(C)cc(=O)oc2c1` (some centres unmarked) [AL, Ac-A′SKSB-AMC] (HELM PEPTIDE1{[ac].[bAla].S.K.S.[CCC(N[*:1])C(=O)[*:2]].[Cc1cc(=O)oc2cc(N[*:1])ccc12]}$$$$V2.0), for which the “stability in mouse plasma” value in the series on mouse plasma enzymes was “significant stability”. The “stability / cleavage” value on human cathepsin B was “readily cleaved”.
The like results for `CCCCC(NC(=O)[C@@H](NC(=O)CCNC(C)=O)C(C)C)C(=O)Nc1ccc2c(C)cc(=O)oc2c1` (some centres unmarked) [AM, Ac-A′VnL-AMC] (HELM PEPTIDE1{[ac].[bAla].V.[CCCCC(N[*:1])C(=O)[*:2]].[Cc1cc(=O)oc2cc(N[*:1])ccc12]}$$$$V2.0) were, in that order, “metabolized quickly” and “metabolized quickly”.
With `CCCC[C@H](NC(=O)[C@@H](NC(=O)[C@@H]1CCCN1C(=O)[C@H](CO)NC(=O)CCNC(C)=O)C(C)C)C(=O)Nc1ccc2c(C)cc(=O)oc2c1` [AN, Ac-A′SPVnL-AMC] (HELM PEPTIDE1{[ac].[bAla].S.P.V.[Nle].[Cc1cc(=O)oc2cc(N[*:1])ccc12]}$$$$V2.0), in the series with mouse plasma enzymes, the “stability in mouse plasma” value is reported as “metabolized quickly”. In addition, on human cathepsin B, the “stability / cleavage” value is recorded as “metabolized quickly”.
For `CCCC[C@H](NC(=O)[C@H](CO)NC(=O)[C@H](CCCCNC(C)=O)NC(=O)[C@H](CO)NC(=O)CCNC(C)=O)C(=O)Nc1ccc2c(C)cc(=O)oc2c1` [AO, Ac-A′SK(Ac) SnL-AMC] (HELM PEPTIDE1{[ac].[bAla].S.K.S.[Nle].[Cc1cc(=O)oc2cc(N[*:1])ccc12]}|PEPTIDE2{[ac]}$PEPTIDE1,PEPTIDE2,4:R3-1:R2$$$V2.0), the “stability in mouse plasma” value with mouse plasma enzymes is on record as “significant stability”. The “stability / cleavage” value at human cathepsin B is “readily cleaved”.
In the case of `CCCCC(NC(=O)[C@H](CO)NC(=O)[C@H](CCCCN)NC(=O)[C@H](CO)NC(=O)CCNC(C)=O)C(=O)Nc1ccc2c(C)cc(=O)oc2c1` (some centres unmarked) [AP, Ac-A′SKSnL-AMC] (HELM PEPTIDE1{[ac].[bAla].S.K.S.[CCCCC(N[*:1])C(=O)[*:2]].[Cc1cc(=O)oc2cc(N[*:1])ccc12]}$$$$V2.0), the “stability in mouse plasma” value in the series on mouse plasma enzymes is given as “significant stability”. Besides, the “stability / cleavage” value on human cathepsin B is given as “readily cleaved”.
Turning to `CC[C@H](NC(=O)[C@@H](NC(=O)CCNC(C)=O)C(C)C)C(=O)Nc1ccc2c(C)cc(=O)oc2c1` [Compound AH, Ac-A′VB-AMC] (HELM PEPTIDE1{[ac].[bAla].V.[Abu].[Cc1cc(=O)oc2cc(N[*:1])ccc12]}$$$$V2.0), the “stability in mouse plasma” value in the series on mouse plasma enzymes was “metabolized quickly”. In addition, on human cathepsin B, the “stability / cleavage” value was “metabolized quickly”.
Consider `CCC(NC(=O)[C@@H](NC(=O)[C@H](CCCCNC(C)=O)NC(=O)[C@H](CO)NC(=O)CCNC(C)=O)C(C)C)C(=O)Nc1ccc2c(C)cc(=O)oc2c1` (some centres unmarked) [Compound AJ, Ac-A′SK(Ac) VB-AMC] (HELM PEPTIDE1{[ac].[bAla].S.K.V.[CCC(N[*:1])C(=O)[*:2]].[Cc1cc(=O)oc2cc(N[*:1])ccc12]}|PEPTIDE2{[ac]}$PEPTIDE1,PEPTIDE2,4:R3-1:R2$$$V2.0), for which the “stability in mouse plasma” value with mouse plasma enzymes is “relatively stable”. For the same compound, the “stability / cleavage” value on human cathepsin B is “relatively stable”.
Consider `CCC(NC(=O)[C@H](CO)NC(=O)[C@H](CCCCNC(C)=O)NC(=O)[C@H](CO)NC(=O)CCNC(C)=O)C(=O)Nc1ccc2c(C)cc(=O)oc2c1` (some centres unmarked) [Compound AK, Ac-A′SK(Ac) SB-AMC] (HELM PEPTIDE1{[ac].[bAla].S.K.S.[CCC(N[*:1])C(=O)[*:2]].[Cc1cc(=O)oc2cc(N[*:1])ccc12]}|PEPTIDE2{[ac]}$PEPTIDE1,PEPTIDE2,4:R3-1:R2$$$V2.0), for which the “stability in mouse plasma” value in the series with mouse plasma enzymes is recorded as “significant stability”. For the same compound, on human cathepsin B, the “stability / cleavage” value is “readily cleaved”.
Consider “N3-p[(HPMA)-co-(MA-b-Ala-Hz-HA-diABZI)]-Pg [Compound 94]”, for which the tumor control result with MC38 tumors is on record as “improved tumor control”. In addition, the “Rh (nm) at pH 7.4” value in series [1] was determined as 10.0 nm. For the same compound, in the series with CT26 tumors, the survival entry is “improved” and the “tumor control / tumor growth” value is recorded as “improved tumor control”. Moreover, the “serum IP-10 level compared to free STINGa” value in series [2] was “similar”.
For the compound “N3-p[(HPMA)-co-(MA-b-Ala-PEG4-VZ-PAB-diABZI)]-Pg [Compound 97]”, in the series on MC38 tumors, the tumor control result is “improved tumor control”. In series [1], the “Rh (nm) at pH 7.4” value is 7.6 nm. Further, the “serum IP-10 level compared to free STINGa” value in series [2] is reported as “lower”.
Turning to “N3-p[(HPMA)-co-(MA-b-Ala-VZ-PAB-diABZI)]-Pg [Compound 96]”, the tumor control result with MC38 tumors is given as “improved tumor control”. Also, in series [1], the “Rh (nm) at pH 7.4” value is on record as 26.9 nm. For the same compound, the “serum IP-10 level compared to free STINGa” value in series [2] is on record as “lower”.
Consider “N3-p[(HPMA)-co-(MA-b-Ala-cHz-HA-diABZI)]-Pg [Compound 95]”, for which, in the series on MC38 tumors, the tumor control entry is reported as “improved tumor control”. The “Rh (nm) at pH 7.4” value in series [1] was 7.3 nm. For the same compound, the “serum IP-10 level compared to free STINGa” value in series [2] is reported as “lower”.
Consider “N3-poly(HPMA-co-Ma-b-Ala-2BXy-co-Ma-b-Ala-COOH)-Pg [Compound 48]”, for which the “Rh (nm) at pH 6.5” value in series [1] came out at 48.0 nm. In addition, in series [3], the “Turbidity at pH 6.5” value was “Aggregate” and the “Turbidity at pH 7.4” value was 0.043.
For “N3-poly(HPMA-co-Ma-b-Ala-2BXy-co-Ma-b-Ala-dimethylethylenediamine)-Pg [Compound 52]”, the “Rh (nm) at pH 6.5” value in series [1] turned out to be 4.1 nm.
As for “N3-poly(HPMA-co-Ma-b-Ala-diABZI)-Pg [Compound 56]”, the tumor control result with MC38 tumors was “not”. Besides, in series [1], the “Rh (nm) at pH 7.4” value was “(aggregate)”. In addition, in the series on CT26 tumors, the survival entry was “comparable to the mice that received the vehicle” and the “tumor control / tumor growth” value is on record as “comparable to the mice that received the vehicle”.
Turning to “N3-poly[(HPMA-co-Ma-b-Ala-2BXy)-b-(HPMA-co-Ma-propyl-NH2)]-Pg [Compound 68]”, in series [1], the “Rh (nm) at pH 6.5” value turned out to be 5.6 nm and the “Rh (nm) at pH 7.4” value amounted to 6.5 nm.
In the case of “N3-poly[(HPMA-co-Ma-b-Ala-2BXy)-b-HPMA]-Pg [Compound 62]”, in series [1], the “Rh (nm) at pH 6.5” value was 6.9 nm and the “Rh (nm) at pH 7.4” value was 6.6 nm. Moreover, in series [3], the “Turbidity at pH 6.5” value was found to be 0.039 and the “Turbidity at pH 7.4” value was determined as 0.039.
As for “PAMAM-g-poly[(HPMA-co-Ma-b-Ala-2BXy)-b-(HPMA-co-Ma-propyl-NH2]-Pg [Compound 80]”, in series [1], the “Rh (nm) at pH 7.4” value was found to be 12.4 nm. Besides, the “Turbidity at pH 7.4” value in series [3] is given as 0.043.
In the case of “PAMAM-g-poly[(HPMA-co-Ma-b-Ala-2BXy)-b-HPMA]-Pg [Compound 78]”, the “Rh (nm) at pH 7.4” value in series [1] came to 12.9 nm. For the same compound, the “Turbidity at pH 7.4” value in series [3] was 0.041.
